Entries after “also recorded” stand apart in the source; their conditions may differ.
Assays:
Format in all cases: cell-based, human
[1] = test system: DU145 cells; assay: Apo-ONE Homogeneous Caspase-3/7 apoptosis assay in DU145 cells (native or neuroendocrine-differentiated); conditions: 10^-6 M, 3 days
Description: (§1) Two human-derived CaP cell lines were used, i.e. the androgen-responsive cell line LNCaP, and the androgen-unresponsive cell line DU145 as well as the colorectal adenocarcinoma HT-29 cell line. The three cell lines were purchased from American Type Culture Collection (ATCC, Rockville, Md.). The LNCaP cells were maintained in RPMI 1640 medium supplemented with 10% fetal bovine serum (FBS), 1% penicillin/streptomycin and 1% glutamine (complete medium). The DU145 cells were maintained in Dulbecco modified Eagle's minimal essential medium (DMEM) supplemented with 10% FBS and 1% penicillin/streptomycin (complete medium). The HT-29 cells were maintained in DMEM supplemented with 10% FBS, 1% penicillin/streptomycin and 1% glutamine. […]
(§2) Cell viability was determined by using the CellTiter-Blue® assay (Promega, Charbonnières, France). Cell apoptosis was quantified by evaluating the enzymatic activities of Caspase 3/7 by using the Apo-ONE® Homogeneous Caspase-3/7 Assay (promega). Briefly, the enzymes were measured in intact and differentiated DU145 culture cells after a 3-days incubation with OxA or OxB (10^-6M) in 96-well plates. The cells were incubated with fluorogenic peptide specific to caspase 3 and 7 enzymes, and detection of fluorescent product over time was monitored in a spectrofluorometer Flex Station 3 (Molecular Devices, St. Grégoire, France) at 485 nm excitation and 527 nm emission. […]

[2] = test system: DU145 cells; assay: CellTiter-Blue cell viability / growth of DU145 cells; conditions: native DU145 cells, 10^-6 M, 3 days
Description: as §1, §2

[3] = test system: HT-29 cells; assay: Cell viability / growth of HT-29 cells
Description: as §1, §2

[4] = test system: HT-29 cells; assay: Apo-ONE Homogeneous Caspase-3/7 apoptosis assay in HT-29 cells (positive control); conditions: 10^-6 M

## Orexin-B [OxB]
[1]; DU145 cells submitted to neuroendocrine differentiation (db-cAMP 1 mM/IBMX 0.1 mM)
  apoptosis (Caspase 3/7 activity): promote cell death
[1]; native DU145 cells
  apoptosis (Caspase 3/7 activity): did not alter apoptosis; also recorded: has no effect on the apoptosis rate
[2]
  cell growth: increased cell growth
[3]
  cell growth: inhibited cell growth
[4]
  apoptosis (Caspase 3/7 activity): promoted significantly the apoptosis
